Patent US11065249B2, “Diacylglycerol acyl transferase 2 inhibitor” (Pfizer Inc., priority 2019, dated 2021)
Values after ≈ are worked out from the molar mass of the structure shown. Counter-ions that a name gives are not always drawn.

Key:
[1] = biological target: human DGAT2 (hDGAT2) (Homo sapiens (Human), UniProt Q96PD7); experiment: In vitro DGAT2 assay, determination of IC50 values for DGAT2 inhibitors; type: biochemical; settings: inhibition of DGAT2, hDGAT2 membrane fractions; geometric mean
human DGAT2 (hDGAT2), sequence (Q96PD7 whole entry): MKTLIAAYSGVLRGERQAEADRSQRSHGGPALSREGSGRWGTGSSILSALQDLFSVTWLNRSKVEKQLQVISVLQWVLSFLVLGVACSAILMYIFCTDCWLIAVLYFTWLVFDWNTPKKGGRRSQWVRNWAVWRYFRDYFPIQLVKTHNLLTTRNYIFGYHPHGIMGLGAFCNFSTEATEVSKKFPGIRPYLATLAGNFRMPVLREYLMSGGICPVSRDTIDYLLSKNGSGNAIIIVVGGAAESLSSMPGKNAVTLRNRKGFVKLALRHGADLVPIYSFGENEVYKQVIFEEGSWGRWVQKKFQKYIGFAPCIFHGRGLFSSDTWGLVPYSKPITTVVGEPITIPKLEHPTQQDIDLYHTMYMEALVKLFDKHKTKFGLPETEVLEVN
Procedure: Recombinant baculovirus for the FLAG-tagged hDGAT2 was generated in SF9 insect cells using Bac-to-Bac baculovirus expression system (Invitrogen) according to the manufacturer's protocol. For the expression of hDGAT2, SF9 cells (20 L) grown in Sf900II media were infected with hDGAT2 baculovirus at a multiplicity of infection of 1 in a Wave Bioreactor System 20/50P wave bag (GE Healthcare). After 40 hours of infection, the cells were then harvested by centrifugation at 5,000×g. The cell pellets were washed by resuspending in phosphate buffered saline (PBS) and collected by centrifugation at 5,000×g. The cell paste was flash frozen in liquid N2 and stored at −80° C. until needed. All operations below were at 4° C. unless otherwise noted. The cells were resuspended in lysis buffer (50 mM Tris-HCl, pH 8.0, 250 mM sucrose) including 1 mM ethylenediaminetetraacetic acid (EDTA) and the complete protease inhibitor cocktail (Roche Diagnostics) at a ratio of 3 mL buffer per 1 g cell paste. The cells were lysed by dounce homogenizer. The cell debris was removed by centrifugation at 1,000×g for 20 min, and the supernatant was centrifuged at 100,000×g for 1 hour. The resulting pellet was rinsed three times by filling ultracentrifuge tubes to the top with ice cold PBS before decanting. The washed pellet was resuspended with gentle stirring for 1 hour in lysis buffer containing 8 mM 3-[(3-cholamidopropyl)dimethylammonio]-1-propanesulfonate (CHAPS) at a ratio of 1 mL buffer per 1 g of original cell paste and centrifuged again at 100,000×g for 1 hour. The resulting supernatant was aliquotted, flash frozen in liquid N2, and stored at −80° C. until use.
To 1 μL of compounds dissolved in 100% DMSO and spotted at the bottom of each well, 5 μL of 0.04% bovine serum albumin (BSA) (fatty acid free, Sigma Aldrich) was added and the mixture was incubated at room temperature for 15 minutes. hDGAT2 membrane fractions were diluted in 100 mM Hepes-NaOH, pH 7.4, 20 mM MgCl2 containing 200 nM methyl arachidonyl fluorophosphonate (Cayman Chemical, dried from ethyl acetate stock solution under argon gas and dissolved in DMSO as 5 mM stock). 10 μL of this enzyme working solution was added to the plates and incubation continued for 2 hours at room temperature. DGAT2 reactions were initiated by the addition of 4 μL of substrates containing 30 μM [1-^14C]decanoyl-CoA (custom-synthesized by Perkin Elmer, 50 mCi/mmol) and 125 μM 1,2-didecanoyl-sn-glycerol (Avanti Polar Lipids) dissolved in 12.5% acetone. The reaction mixtures were incubated at room temperature for 40 min and the reactions were stopped by addition of 5 μL of 1% H3PO4. After the addition of 45 μL MicroScint-E (Perkin-Elmer), plates were sealed with Top Seal-A covers (Perkin-Elmer) and phase partitioning of substrates and products was achieved using a HT-91100 microplate orbital shaker (Big Bear Automation, Santa Clara, Calif.). Plates were centrifuged at 2,000×g for 1 minute in an Allegra 6R Centrifuge (Beckman Coulter) and then were sealed again with fresh covers before reading in a 1450 Microbeta Wallac Trilux Scintillation Counter (Perkin Elmer). DGAT2 activity was measured by quantifying the generated product [^14C]tridecanoylglycerol in the upper organic phase.
Inhibitors were tested at eleven different concentrations to generate IC50 values for each compound.

[2] = Determination of pKa (capillary electrophoresis, Analiza); type: physicochemical; settings: most basic pKa, mean
[3] = High throughput determination of intrinsic clearance in human hepatocytes; type: in vitro ADME; settings: human, pooled cryopreserved human hepatocytes (suspension), high throughput human hepatocyte assay, 1 μM test compound; mean +/− Std Dev
Procedure: (§1) The incubation was carried out at 37° C. […] The samples were centrifuged (Eppendorf, Hauppauge, N.Y.) at 3000 rpm for 5 min at 4° C.

[4] = Intrinsic clearance in human liver microsomes; type: in vitro ADME; settings: 1 μM test compound, mean +/− STD Dev; for microsomal CLint at 1 μM: human, pooled human liver microsomes, pH 7.4, human liver microsome assay; for CLint (+/−STD Dev): human liver microsome assay
Procedure: The incubations were conducted at 37° C. […] (Sorvall R C 3C Plus, Thermo Scientific, Waltham, Mass.).

[5] = biological target: DGAT2 in human hepatocytes (Homo sapiens (Human), UniProt Q96PD7); experiment: Determination of IC50 values for DGAT2 inhibitors in human hepatocytes; type: cell-based; settings: inhibition of DGAT2 in human hepatocytes; geometric mean
DGAT2 in human hepatocytes, sequence (Q96PD7 whole entry): as above
Procedure: For evaluation of the effects of DGAT2 inhibitors in a cell-based setting, cryopreserved human hepatocytes (Lot DOO, Celsis, Baltimore, Md.) were thawed and plated onto type I collagen-coated plates according to the manufacturer's instructions. After 18 hours overnight recovery period, the cells were overlayed with media containing 250 μg/mL Geltrex Basement Membrane Matrix (Thermo Fisher). The following day, media was aspirated and replaced with serum-free Williams Media E (Thermo Fisher) containing 400 μM sodium dodecanoate (Sigma-Aldrich, St. Louis, Mo.) and 2 mM GlutaMAX (Thermo Fisher). […] DGAT2 inhibitors were then added to the desired final concentration. After a 15 minute preincubation, 0.2 μCi [^14C(U)]-glycerol (Perkin Elmer) was added to each well followed by a 3 hour incubation. At this point the media was removed, and the cells lysed via orbital shaking in isopropyl alcohol:tetrahydrofuran (9:1) for 15 minutes prior to centrifugation at 3000 rpm for 10 minutes. Radiolabeled lipids were resolved using a solvent system by thin layer chromatography with the solvent consisting of hexanes:diethyl ether:glacial acetic acid (75:23:2, v/v/v). After separation, radiolabeled lipids were visualized using the Typhoon 9500 phosphorimaging system (GE). The half maximal inhibitory concentrations (IC50 values) were determined by nonlinear regression analysis of the % inhibition dose response curve using GraphPad Prism (GraphPad Software, Inc., La Jolla, Calif.).
Table 5 below provides the IC50 values of selected Examples for inhibition of DGAT2 in human hepatocytes in accordance with the above-described assay. Results are reported as geometric mean IC50 values, with the number of replicates (n) shown.

[6] = tested on: human hepatocytes; experiment: High throughput determination of intrinsic clearance in human hepatocytes; type: in vitro ADME; settings: high throughput human hepatocyte assay, 1 μM test compound; mean +/− Std Dev
Procedure: as §1

[7] = Thermodynamic solubility in various biorelevant media (PBS, SGN, FaSSIF, FeSSIF); type: physicochemical
Procedure: The solubility of active pharmaceutical ingredients is an important characteristic in determining biological performance and ease of formulation during drug development, with high solubility being preferred (Klein, S. 2010, The AAPS Journal, 12, 397-406; Di, L., et al 2012, Drug Disc. Today, 17.486-495). A test sample of crystalline solid (˜7 mg) was combined in a vial with 1 mL of the relevant buffer solution and the mixture vortexed to combine. If the solid dissolved completely, additional solid was added with vortexing until a saturated solution was obtained. The saturated solution/solid mixture was capped and subjected to temperature cycling as follows: 1 min at 25° C.; 8 h at 40° C.; 5 h at 15° C. and 12 h at 25° C. The mixture was filtered in a centrifugal filtration device (0.22 μm PVDF filter, MilliporeSigma, Milwaukee, Wis.) at 13,000 rpm and the concentration of the test compound in the filtrate was determined by HPLC/UPLC with reference to a three point standard curve. Phosphate buffered saline (PBS, pH 6.8, 50 mM phosphate buffer, 250 mM NaCl). Simulated gastric fluid (SGN pH 1.2, USP recipe). Fasted state simulated intestinal fluid (FaSSIF, 3 mM sodium taurocholate, 0.75 mM phospholipid from soybean lecithin, 50 mM phosphate buffer, ionic strength adjusted to 250 mM with NaCl, pH 6.8) and fed state simulated intestinal fluid (FeSSIF, 15 mM sodium taurocholate, 3.75 mM phospholipid from soybean lecithin, 144 mM acetic acid, 50 mM phosphate buffer, ionic strength adjusted to 250 mM with NaCl, pH 6.8).

| SMILES | IC50 [1] [nM] | hepatocyte CLint at 1 μM [3] [µL/min/1e6 cells] | microsomal CLint at 1 μM [4] [µL/min/mg] | CLint (+/−Std Dev) [6] | CLint (+/−STD Dev) [4] [µL/min/mg] | also measured |
| --- | --- | --- | --- | --- | --- | --- |
| CCOc1cccnc1Oc1cncc(-c2ncc(C(=O)N[C@H]3CC[C@H](C(F)(F)F)NC3)cn2)c1 (racemic) [Example 9, rac-2-{5-[(3-ethoxypyridin-2-yl)oxy]pyridin-3-yl}-N-[(3R,6S)-6-(trifluoromethyl)piperidin-3-yl]pyrimidine-5-carboxamide or rac-2-{5-[(3-ethoxypyridin-2-yl)oxy]pyridin-3-yl}-N-[(3R,6R)-6-(trifluoromethyl)piperidin-3-yl]pyrimidine-5-carboxamide] | 19 | 54 | > 290 |  |  | pKa [2]: 4 |
| CCOc1cccnc1Oc1cncc(-c2ncc(C(=O)NC3CCC(C(F)(F)F)NC3)cn2)c1 (single isomer, unassigned; ent-1) [Example 10, 2-{5-[(3-ethoxypyridin-2-yl)oxy]pyridin-3-yl}-N-[6-(trifluoromethyl)piperidin-3-yl]pyrimidine-5-carboxamide, trifluoroacetate salt, ENT-1] | 39 | 27 | 270 |  |  | Basic pKa [2]: 4.7 |
| CCOc1cc(F)cnc1Oc1cncc(-c2ncc(C(=O)N[C@@H]3CNCC[C@@H]3F)cn2)c1 [Example 1, 2-{5-[(3-Ethoxy-5-fluoropyridin-2-yl)oxy]pyridin-3-yl}-N-[(3R,4S)-4-fluoropiperidin-3-yl]pyrimidine-5-carboxamide, bis(trifluoroacetate) salt] | 5.8 |  |  | <2.7 +/− 0.72 μL/min/10^6 cells | <7 | Basic pKa [2]: 7.7 |
| CCOc1cccnc1Oc1cncc(-c2ncc(C(=O)N[C@@H]3CNCC[C@@H]3F)cn2)c1 [Example 3, 2-{5-[(3-Ethoxypyridin-2-yl)oxy]pyridin-3-yl}-N-[(3R,4S)-4-fluoropiperidin-3-yl]pyrimidine-5-carboxamide, bis(trifluoroacetate) salt] |  |  |  | <1.9 +/− 0.35 μL/min/10^6 cells | <7 | Basic pKa [2]: 8.1 |
| CCOc1cccnc1Oc1cncc(-c2ncc(C(=O)N[C@H]3CNC[C@H](F)C3)cn2)c1 [Example 7, 2-{5-[(3-ethoxypyridin-2-yl)oxy]pyridin-3-yl}-N-[(3R,5R)-5-fluoropiperidin-3-yl]pyrimidine-5-carboxamide, trifluoroacetate salt] |  | < 1.8 | < 7 |  |  | IC50 [5]: 100 nM; pKa [2]: 7.5 |
| CCOc1cccnc1Oc1cncc(-c2ncc(C(=O)N[C@H]3CCOC3)cn2)c1 [WO2018033832 Ex. 1, Form 1] |  |  |  |  |  | Solubility ([7]; FaSSIF pH 6.8): 69 µg/mL (≈ 169 µM); Solubility ([7]; PBS, pH 6.8): 43 µg/mL (≈ 106 µM); Solubility ([7]; SGN pH 1.2): 78 µg/mL (≈ 191 µM) |
| CCOc1cccnc1Oc1cncc(-c2ncc(C(=O)N[C@H]3CCOC3)cn2)c1 [WO2018033832 Ex. 1, Form 2] |  |  |  |  |  | Solubility ([7]; FaSSIF pH 6.8): 93 µg/mL (≈ 228 µM); Solubility ([7]; PBS, pH 6.8): 60 µg/mL (≈ 147 µM); Solubility ([7]; SGN pH 1.2): 1082 µg/mL (≈ 2660 µM) |

Further lines, with some results ahead:

| IC50 [1] [nM] | hepatocyte CLint at 1 μM [3] [µL/min/1e6 cells] | microsomal CLint at 1 μM [4] [µL/min/mg] | CLint (+/−Std Dev) [6] | CLint (+/−STD Dev) [4] [µL/min/mg] | SMILES | also measured |
| --- | --- | --- | --- | --- | --- | --- |
| 200 | 6.5 | 11 |  |  | CCOc1cccnc1Oc1cncc(-c2ncc(C(=O)N[C@H]3CNC[C@@H](F)C3)cn2)c1 (racemic) [Example 25, rac-2-{5-[(3-ethoxypyridin-2-yl)oxy]pyridin-3-yl}-N-[(3R,5S)-5-fluoropiperidin-3-yl]pyrimidine-5-carboxamide, trifluoroacetate salt] | IC50 [5]: > 130 nM; pKa [2]: 6.8 |
|  |  |  | 9.3 +/− 1.1 μL/min/10^6 cells | 30 | CCOc1cccnc1Oc1cncc(-c2ncc(C(=O)NC3(C)CCS(=O)(=O)C3)cn2)c1 (stereo not drawn) [WO2018033832 Ex. 3.1] |  |
|  |  |  | 5.1 +/− 0.69 μL/min/10^6 cells | <8 | CCOc1cccnc1Oc1cncc(-c2ncc(C(=O)NC3CCS(=O)(=O)C3)cn2)c1 (stereo not drawn) [WO2018033832 Ex. 3.3] |  |
|  |  |  | 9.3 +/− 0.52 μL/min/10^6 cells | <9.6 | CCOc1cc(F)cnc1Oc1cncc(-c2ncc(C(=O)N[C@H]3CCOC3)cn2)c1 [WO2018033832 Ex. 8] |  |
